In paper PMC9281569, “Two HCN4 Channels Play Functional Roles in the Zebrafish Heart” (Frontiers in Physiology, 2022):

What was measured:
[1] = test system: developing zebrafish embryos; assay: Antisense morpholino knockdown: heart rate of zebrafish embryos; type: in vivo, zebrafish (Danio rerio); settings: 200 μM MO into 1-cell embryos
Procedure: The heart rate of zebrafish embryos was measured under an Olympus MVX10 microscope at room temperature. After zebrafish embryos were acclimated to the new environment (room temperature, light), heart rate was counted by eye.
(§1) Morpholino antisense oligos (MO) were purchased from Gene Tools (Philomath, OR, United States) ([Fujii et al., 2020]). Zebrafish 1-cell embryos were injected with approximately 5 nL of MO solution at a concentration of 200 μM (approximately 10 ng/embryo).
Since DrHCN4 and DrHCN4L have similar sensitivities to the HCN inhibitors, individual gene knockdowns would be required for evaluating each channel’s role in heart rate regulation. Before knocking down each gene, we first confirmed that both HCN4 channels (DrHCN4 and DrHCN4L) were expressed in day 1, day 3, and day 7 embryos and in the heart and brain of adult fish (Figure 6A). We next investigated whether the knockdown of each gene affects heart rate in zebrafish. The expression of each gene was knocked down by using antisense morpholino (MO), which is commonly used in zebrafish ([Blum et al., 2015]; [Jou et al., 2017]; [Fujii et al., 2020]). MO solutions were injected into 1-cell embryos of zebrafish. […] Embryos were injected with control MO, DrHCN4 MO, and DrHCN4L MO at concentrations of 200 μM or with a mixture of DrHCN4 MO and DrHCN4L MO (200 μM for each). At 24 h after injection of MO, there was a slight decrease of heart rate in embryos injected with DrHCN4 MO (44 ± 2 bpm, p = 0.049) and DrHCN4L MO (45 ± 2 bpm, p = 0.092) compared to the heart rate in embryos injected with control MO (54 ± 1 bpm). […] After 48 h, heart rate was considerably lower in all three groups compared to that in the control group (135 ± 4 bpm): DrHCN4 MO (110 ± 3 bpm, p < 0.001), DrHCN4L MO (111 ± 1 bpm, p = 0.001), and mixture of DrHCN4 MO and DrHCN4L MO (116 ± 7 bpm, p = 0.014). However, at 72 h after MO injection, heart rate in all three groups had returned to the same level as that in the control group (145 ± 5 bpm): DrHCN4 MO (136 ± 3 bpm, p = 0.509), DrHCN4L MO (141 ± 5 bpm, p = 0.921), and mixture of DrHCN4 MO and DrHCN4L MO (147 ± 7 bpm, p = 0.991) (Figure 6B and Table 6).
(§2) FIGURE 6 Effects of HCN4 channel knockdown on zebrafish. (A) Expression of DrHCN4 and DrHCN4L in one (1), three (3), and seven (7) day embryos/larvae as well as in the heart (H) and brain (B) of adult fish was confirmed by RT-PCR. Arrows indicate the DNA ladder markers of 1,000 bp and 500 bp. (B) Heart rates at 24, 48, and 72 h are shown in bar graphs for 200 μM MO-injected zebrafish embryos: control MO (n = 20), DrHCN4 MO (n = 10), DrHCN4L MO (n = 10), and mixed DrHCN4 and DrHCN4L MO (n = 10). Statistical analysis was performed by Dunnett’s test. (C) Representative examples of zebrafish injected with control MO, DrHCN4 MO, DrHCN4L MO, and mixed DrHCN4 and DrHCN4L MO. […] Bar, 200 μm. (D) Ratios of normal embryos, pericardial edema, and death at 48 h after injection of 200 µM MO: control MO (n = 136), DrHCN4 MO (n = 75), DrHCN4L MO (n = 34), and mixed DrHCN4 and DrHCN4L MO (n = 30). (E) Pericardial edema and death ratios at 72 h after injection of 200 µM MO. Control MO (n = 136), DrHCN4 MO (n = 75), DrHCN4L MO (n = 34), and mixed DrHCN4 and DrHCN4L MO (n = 30).

zebrafish embryos = assay: Incidence of pericardial edema in MO-injected zebrafish embryos; type: in vivo, zebrafish (Danio rerio); settings: embryos surviving first 24 h
Procedure: as §1, §2
Pericardial edema is often observed in embryonic zebrafish with heart failure ([Narumanchi et al., 2021]). We determined the incidence of edema in zebrafish injected with 200 μM MO. We only examined zebrafish embryos that survived for the first 24 h after MO injection, and the rates of edema occurrence were determined at 48 and 72 h after injection. […] After 72 h, the proportions of embryos with edema increased to 79, 94, and 87% (Figure 6E).

[2] = test system: developing zebrafish embryos; assay: Antisense morpholino knockdown: heart rate of zebrafish embryos; type: in vivo, zebrafish (Danio rerio); settings: Supplementary Figure S2, 52 hpf
adult zebrafish = test system: adult zebrafish; set-up: method as in Marchant and Farrell, 2019; settings: intraperitoneal injection, depending on test temperatures, ref Marchant and Farrell, 2019; cited from earlier work
[3] = 48 h after injection of 200 μM MO
[4] = 72 h after injection of 200 μM MO

5′-GGCGACGCTGGCTGAAAAATAGGTC -3′ (all phosphorodiamidate morpholino (PMO)) [DrHCN4L MO, Morpholino antisense oligo against DrHCN4L (Gene Tools)]
Heart rate ([1]; 24 h after MO injection): 45 ± 2 bpm
Heart rate ([1]; 48 h after MO injection): 111 ± 1 bpm
Heart rate ([1]; 72 h after MO injection): 141 ± 5 bpm
Embryos showing pericardial edema (zebrafish embryos; [3]): 62%
Embryos showing pericardial edema (zebrafish embryos; [4]): 94%

5′-GTAATTACTGCCACCGTGCACCACA-3′ (all phosphorodiamidate morpholino (PMO)) [DrHCN4 MO, Morpholino antisense oligo against DrHCN4 (Gene Tools)]
Heart rate ([1]; 24 h after MO injection): 44 ± 2 bpm
Heart rate ([1]; 48 h after MO injection): 110 ± 3 bpm
Heart rate ([1]; 72 h after MO injection): 136 ± 3 bpm
Embryos showing pericardial edema (zebrafish embryos; [3]): 59%
Embryos showing pericardial edema (zebrafish embryos; [4]): 79%

5′-CCTCTTACCTCAGTTACAATTTATA -3′ [Control MO]
Heart rate ([1]; 24 h after MO injection): 54 ± 1 bpm
Heart rate ([1]; 48 h after MO injection): 135 ± 4 bpm
Heart rate ([1]; 72 h after MO injection): 145 ± 5 bpm
Effect of injection on heart rate [2]: did not affect heart rate

COc1ccc(CCN(C)CCCN2CCc3cc(OC)c(OC)cc3CC2=O)cc1OC [zatebradine]
Reduction of maximum heart rate (adult zebrafish): 38–65%
